Counter-ions that a name gives are not always drawn.

This data set can be described thus: Apparent aqueous solubility by the dissolution method. Particulars: water; for solubility: 22 °C, thermodynamic from solid.

Take `CCCC[N+]1(C)[C@@H]2C[C@@H](OC(=O)[C@H](CO)c3ccccc3)C[C@H]1[C@@H]1O[C@@H]12` (stereo partly drawn) [[Bs]Br, Butyl scopolammonium bromide]: the “solubility (unusually high)” value was “more than one gram per milliliter” and the solubility is 1800 ± 200 mg/mL.

`O=c1n(CCCN2CCN(c3cccc(Cl)c3)CC2)nc2ccccn12` [[TrH]Cl, Trazodone hydrochloride]: the solubility is 38.5 ± 0.2 mg/mL.

A word on the solubility: it is the concentration that dissolves in the medium under given conditions.

The values are drawn from article PMC5939191 (Chemical Science, 2018).
